Assay results: patent US5854002A (Rhone Poulenc, Inc., priority 1996, dated 1998)
Read-outs that look alike come from different tables or passages of the source.

What was measured:
Drosophila Rdl = biological target: T1, Drosophila Rdl (Drosophila melanogaster, UniProt P25123); experiment: [3H] muscimol radioligand binding assay, membranes of High Five cells infected with vBP8-Rdl
T1 construct: excised the full-length cDNA encoding Rdl; made in house; host or cells: High Five (Trichoplusia ni) cells, baculovirus vBP8-Rdl
T1 sequence (P25123 45-606): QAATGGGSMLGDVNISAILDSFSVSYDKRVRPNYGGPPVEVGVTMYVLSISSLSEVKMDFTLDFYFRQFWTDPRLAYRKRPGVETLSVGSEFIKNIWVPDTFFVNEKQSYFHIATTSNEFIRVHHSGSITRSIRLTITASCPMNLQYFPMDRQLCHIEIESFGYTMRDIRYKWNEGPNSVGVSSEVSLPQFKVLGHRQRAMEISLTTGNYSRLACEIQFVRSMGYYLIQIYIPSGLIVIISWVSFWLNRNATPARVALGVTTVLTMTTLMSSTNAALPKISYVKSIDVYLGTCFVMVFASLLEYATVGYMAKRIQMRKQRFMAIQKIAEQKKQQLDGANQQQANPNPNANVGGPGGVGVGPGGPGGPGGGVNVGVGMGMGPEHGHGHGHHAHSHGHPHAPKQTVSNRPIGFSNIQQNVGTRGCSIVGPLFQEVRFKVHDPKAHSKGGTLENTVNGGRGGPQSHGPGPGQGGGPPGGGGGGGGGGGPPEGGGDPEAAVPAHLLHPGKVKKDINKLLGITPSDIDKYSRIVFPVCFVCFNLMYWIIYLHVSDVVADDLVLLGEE
Procedure: (§1) High Five™ cells (derived from the cabbage loper, Trichoplusia ni, Invitrogen Corp.) were infected with vBP8-Rdl, vBP8-LCCH3, or vBP8-Grd, either singly or in various combinations. Cells were harvested at 3 days post-infection in tubes of approximately 6×10^7 cells per tube, the cells were pelleted by centrifugation, the supernatants discarded, and the pellets immediately stored at -80° C. This amount of tissue is sufficient for one 96-well microtiter plate. Membranes were prepared by first thawing and then resuspending the cell pellet in 25 mL of 10 mM phosphate buffer pH 7.4. The cells were gently homogenized with five strokes in a glass/Teflon homogenizer and the membranes pelleted by centrifugation at 120,000 g for 30 minutes. The membrane pellet was resuspended in 25 mL of 10 mM phosphate buffer pH 7.4, re-pelleted as above, and the pellet finally resuspended in 3 mL of buffer. The protein concentration was determined by the Bradford method (Bradford (1976) Anal. Biochem. 79:248) and then adjusted to 625 μg of protein per mL of 10 mM PBS, pH 7.4.
The reactions were incubated for 90 minutes at 4° C., and then terminated by filtration through Whatman GF/B glass fiber filters. Filters were washed with two 5 mL aliquots of cold buffer, and the radioactivity remaining on the filters was determined by liquid scintillation. Multiple assays were performed to test numerous compounds.

Drosophila Grd and LCCH3 = biological target: T2, Drosophila Grd and LCCH3 (Drosophila melanogaster, UniProt Q08832+Q24352); experiment: [3H] muscimol radioligand binding assay, membranes of High Five cells co-infected with vBP8-Grd/vBP8-LCCH3
T2 construct: made in house; host or cells: High Five (Trichoplusia ni) cells, co-infected with vBP8-Grd and vBP8-LCCH3
T2 sequence (Q24352 59-686): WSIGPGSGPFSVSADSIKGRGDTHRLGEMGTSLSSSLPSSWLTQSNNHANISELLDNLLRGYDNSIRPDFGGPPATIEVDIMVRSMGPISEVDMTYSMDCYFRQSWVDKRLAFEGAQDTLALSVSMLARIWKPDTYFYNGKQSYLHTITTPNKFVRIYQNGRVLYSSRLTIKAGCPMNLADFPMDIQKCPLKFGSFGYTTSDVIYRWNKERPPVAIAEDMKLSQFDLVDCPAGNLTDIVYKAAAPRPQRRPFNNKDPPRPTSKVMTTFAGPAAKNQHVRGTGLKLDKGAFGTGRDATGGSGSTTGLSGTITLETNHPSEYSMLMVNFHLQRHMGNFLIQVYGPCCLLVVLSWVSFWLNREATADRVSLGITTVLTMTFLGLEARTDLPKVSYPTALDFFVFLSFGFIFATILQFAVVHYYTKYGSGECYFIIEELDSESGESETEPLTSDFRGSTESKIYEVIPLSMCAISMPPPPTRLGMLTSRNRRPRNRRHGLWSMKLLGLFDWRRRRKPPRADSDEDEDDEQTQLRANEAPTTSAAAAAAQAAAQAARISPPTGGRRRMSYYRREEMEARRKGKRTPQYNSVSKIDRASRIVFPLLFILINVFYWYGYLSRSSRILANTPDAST
T2 sequence (Q08832 21-496): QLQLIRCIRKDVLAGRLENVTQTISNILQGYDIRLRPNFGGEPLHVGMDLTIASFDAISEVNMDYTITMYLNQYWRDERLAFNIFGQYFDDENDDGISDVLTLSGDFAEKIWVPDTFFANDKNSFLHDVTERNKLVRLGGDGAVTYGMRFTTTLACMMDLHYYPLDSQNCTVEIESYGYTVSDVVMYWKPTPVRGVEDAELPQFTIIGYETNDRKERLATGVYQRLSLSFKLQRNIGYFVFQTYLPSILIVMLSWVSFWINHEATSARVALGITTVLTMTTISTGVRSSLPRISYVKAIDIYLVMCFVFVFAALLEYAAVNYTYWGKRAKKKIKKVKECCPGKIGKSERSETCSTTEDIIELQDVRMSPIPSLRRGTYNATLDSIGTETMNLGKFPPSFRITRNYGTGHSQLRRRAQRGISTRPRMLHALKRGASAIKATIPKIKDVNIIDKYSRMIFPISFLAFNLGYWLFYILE
Procedure: as §1
The radioligand binding assays were composed of 200 μL membrane preparation (containing 125 μg protein), 100 μL of [^3 H] muscimol (to give a final concentration of 5 nM), 20 μL of unlabeled test compound, buffer or unlabeled muscimol, and 680 μL of 10 mM PBS, pH 7.4. […] The reactions were incubated for 90 minutes at 4° C., and then terminated by filtration through Whatman GF/B glass fiber filters. Filters were washed with two 5 mL aliquots of cold buffer, and the radioactivity remaining on the filters was determined by liquid scintillation. Multiple assays were performed to test numerous compounds.

Rat brain = experiment: [3H] muscimol binding, rat brain (previous assays of the inventors)
Excerpt: Data from fly heads and rat brains were obtained as described in Table 2.

[1] = system: insect cells infected with either vBP8-Grd, vBP8-LCCH3, or co-infected with vBP8-Grd and vBP8-LCCH3; experiment: Whole cell voltage clamp recordings of infected insect cells; type: cell-based, Drosophila; conditions: GABA applications of up to 1 mM, 30 to 36 hours post-infection, any of the three infected cell types
Procedure: Insect cells infected with either vBP8-Grd, vBP8-LCCH3, or co-infected with vBP8-Grd and vBP8-LCCH3 were analyzed for the expression and assembly of functional GABA-gated chloride channels. Whole cell voltage clamp recordings were made at between 30 and 36 hours post-infection. […] However, no specific [^3 H]EBOB binding was detected in cells infected with any combination of virus.

[2] = half-maximal displacement of [3H] muscimol, read-out: IC50, Rdl
[3] = half-maximal displacement of [3H] muscimol, read-out: IC50, Grd/LCCH3
[4] = half-maximal displacement of [3H] muscimol, previous assays by the inventors

SMILES | IC50 (Drosophila Rdl; [2]) | IC50 (Drosophila Grd and LCCH3; [3]) | IC50 (Rat brain; [4]) | IC50 (Drosophila Rdl) | IC50 (Drosophila Grd and LCCH3) | Depolarization in whole cell voltage clamp [1] | IC50 (Rat brain)
NCCCCC(=O)O [5-amino-valeric acid] | 2.1 µM | 0.749 µM | > 1000 µM |  |  |  | 
NCC(CC(=O)O)c1ccc(Cl)cc1 (centres unmarked) [Baclofen] | > 1000 µM | > 1000 µM | > 1000 µM |  |  |  | 
CN1CCc2cc3c(cc2[C@H]1[C@@H]1OC(=O)c2c1ccc1c2OCO1)OCO3 [Bicuculline] |  |  | 19 µM | > 1000 µM | > 1000 µM |  | 
NCCCC(=O)O [GABA, γ-aminobutyric acid] |  | 0.038 µM |  |  |  | Depolarization was not detected | 
COc1ccc(-c2ccc(=N)n(CCCC(=O)O)n2)cc1 [Gabazine] | > 1000 µM | > 1000 µM |  |  |  |  | 0.483 µM
COc1ccc2c(c1OC)C(=O)O[C@@H]2[C@H]1c2cc3c(cc2CCN1C)OCO3 [Hydrastine] |  |  | 2.61 µM | > 1000 µM | > 1000 µM |  | 
